Reference: publication PMC12169680, “Design and Mechanistic Analysis of a Potent Bivalent Inhibitor of Transthyretin Amyloid Fibrillogenesis” (Journal of Medicinal Chemistry, 2025)

Key:
[1] = target: T1, V122I TTR (Homo sapiens, UniProt P02766, V142I); experiment: Inhibition of mechano-enzymatic fibrillogenesis (ThT); assay type: biochemical; settings: for antifibrillogenic activity, in words: V122I TTR
T1 construct: 1-127; His6 (N); TEV cleavage site (N); made in house; host or cells: E. coli BL21 (DE3)
Experimental: To test their potency as inhibitors of TTR fibril formation, the 15 ligands were evaluated for their ability to inhibit the mechano-enzymatic mechanism of fibrillogenesis of V122I TTR, which is one of the most common amyloidogenic variants, , causing a disease with severity intermediate between the wild-type and other rare, more aggressive types of amyloidosis. […] Biochemical activity of ligands together with their physicochemical properties (i.e., cLogD, TPSA) were taken into consideration and B26 was finally selected as the most promising lead for further studies (Figure A). […] Prototype mds84 was also included for comparison. […] Although higher molar ratios of the monovalent ligands did inhibit fibrillogenesis, this cannot be replicated in vivo because the negative cooperativity of TTR cannot be overcome at feasible drug dosage. ,
Recombinant V122I TTR at 0.5 mg/mL (9 μM) in PBS, pH 7.4 was preincubated (37 °C for 30 min) with an equimolar concentration of ligand (or DMSO alone) before adding trypsin (5 ng/μL). Protein fibrillogenesis was carried out in glass vials stirred at 1400 rpm (IKA magnetic stirrer), 37 °C and spectrophotometric turbidity at 400 nm was used to monitor fibril formation over time until it reached a plateau at 96 h.
Analysis of amyloid material harvested from each sample at the end of the fibrillogenesis was carried out using Thioflavin T (ThT) emission fluorescence and Congo red staining. For these analyses, samples were centrifuged 20 min at 11,600g and pellets were thoroughly rinsed with PBS to remove nonbound ligand, resuspended with 100 μL PBS, pH 7.4, containing 10 μM Thioflavin T (ThT) in Costar 96-well black-wall plates. Bottom fluorescence values (excitation 440 nm, emission 480 nm) were recorded using a BMG LABTECH FLUostar Omega plate reader. Each value was normalized to the ThT signal of the TTR sample without ligand.

[2] = target: T2, isolated recombinant wild-type TTR (Homo sapiens, UniProt P02766); experiment: Displacement of 125I-T4 from isolated wild-type TTR; assay type: binding; settings: for IC50: ligand concentration reducing binding of 125I-thyroxine by isolated recombinant wild-type TTR by 50%, mean ± SD, read-out: bIC50; for IC50 in buffer (bIC50) compared to mds84, in words: isolated TTR
T2 construct: Native TTR is a noncovalent homotetramer of β-sheet-rich 127-residue protomers; His6 (N); TEV cleavage site (N); made in house; host or cells: E. coli BL21 (DE3)
Experimental: Competition of ligands with thyroxine for binding by TTR was assayed quantitatively by a previously described procedure.

[3] = target: T3, wild-type TTR in normal human plasma (Homo sapiens, UniProt P02766); experiment: Displacement of 125I-T4 from TTR in normal human plasma; assay type: binding; settings: for binding to TTR in plasma, in words: normal human plasma
T3 construct: TTR in whole plasma, from individuals homozygous for wild-type TTR; from tissue; host or cells: whole human plasma from individuals homozygous for wild-type TTR

[4] = ligand concentration reducing binding of 125I-thyroxine by wild-type TTR by 50% in normal human plasma, mean ± SD
[5] = residual V122I TTR fibrillar aggregation with equimolar ligand, ThT emission normalized to protein without ligand, mean ± SD
[6] = supplementary CSV, residual V122I TTR aggregation, equimolar ligand

Row | Structure (SMILES) | inhibition of V122I TTR amyloid formation at equimolar ligand/protein, in words ([1]; 9 μM V122I TTR, equimolar concentration, bivalent vs monovalent ligands) | IC50 [2] [nM] | IC50 [3, 4] [µM] | binding to TTR in plasma, in words [3] | antifibrillogenic activity, in words ([1]; equimolar ligand) | Agg (%) [1, 5] [%] | Agg (%) [1, 6] [%] | IC50 ([3]; supplementary CSV, TTR in normal human plasma) [µM] | IC50 in buffer (bIC50) compared to mds84, in words [2]
1 | Cc1n[nH]c(C)c1CCCOc1cc(C(=O)O)ccc1F [AG10, acoramidis, reference compound] | significantly lower inhibitory effect | – | – | – | – | – | – | – | –
2 | O=C(O)CCc1cc(Cl)c(OCCCOCCOc2c(Cl)cc(Nc3ccccc3C(=O)O)cc2Cl)c(Cl)c1 [B1, 2-[4-[2-[3-[4-(2-Carboxyethyl)-2,6-dichloro-phenoxy]-propoxy]-ethoxy]-3,5-dichloro-anilino]-Benzoic Acid] | – | 100 ± 30 | 1.1 ± 0.11 | increased the potency of binding | excellent inhibitors of fibrillogenesis | 5.2 ± 3.6 | 5.2±3.6 | – | –
3 | O=C(O)CCc1cc(Cl)c(OCCOCCCCOc2c(Cl)cc(Nc3ccccc3C(=O)O)cc2Cl)c(Cl)c1 [B2, 2-[4-[4-[2-[4-(2-Carboxyethyl)-2,6-dichloro-phenoxy]-ethoxy]-butoxy]-3,5-dichloro-anilino]-Benzoic Acid] | – | – | 2.6 ± 0.59 | increased the potency of binding | excellent inhibitors of fibrillogenesis | 4.4 ± 1.5 | 4.4±1.5 | – | –
4 | O=C(O)CCc1cc(Cl)c(OCC[C@H](O)[C@@H](O)CCOc2c(Cl)cc(Nc3ccccc3C(=O)O)cc2Cl)c(Cl)c1 [B4, 2-[4-[(3S,4S)-6-[4-(2-Carboxyethyl)-2,6-dichloro-phenoxy]-3,4-dihydroxy-hexoxy]-3,5-dichloro-anilino]-benzoic acid] | – | – | – | increased the potency of binding | excellent inhibitors of fibrillogenesis | 4.4 ± 3.0 | – | – | –
5 | O=C(O)CCc1cc(Cl)c(OCC[C@@H](O)[C@H](O)CCOc2c(Cl)cc(Nc3ccccc3C(=O)O)cc2Cl)c(Cl)c1 [B4A, 2-[4-[(3R,4R)-6-[4-(2-carboxyethyl)-2,6-dichloro-phenoxy]-3,4-dihydroxy-hexoxy]-3,5-dichloro-anilino]-Benzoic Acid] | – | 70 ± 9 | – | increased the potency of binding | excellent inhibitors of fibrillogenesis | 3.3 ± 1.2 | 4.4±3.0 | 4.4 ± 1.2 | –
6 | O=C(O)COCCOCCOCCOc1c(Cl)cc(Nc2ccccc2C(=O)O)cc1Cl [B5, 2-[4-[2-[2-[2-(Carboxymethoxy)-ethoxy]-ethoxy]-ethoxy]-3,5-dichloro-anilino]-Benzoic Acid] | – | 5000 ± 400 | – | reduced binding | Antifibrillogenic activity was reduced | 28.8 ± 13.4 | 28.8±13.4 | – | higher values of IC50
7 | O=C(O)CCOCCCOCCCOCCCOc1c(Cl)cc(Nc2ccccc2C(=O)O)cc1Cl [B6, 2-[4-[3-[3-[3-(2-Carboxy-ethoxy)-propoxy]-propoxy]-propoxy]-3,5-dichloro-anilino]-Benzoic Acid] | – | 1200 ± 410 | 40 ± 13 | reduced binding | Antifibrillogenic activity was reduced | 12 ± 4.4 | 12±4.4 | – | higher values of IC50
8 | O=C(O)CCc1cc(Cl)c(OCOCCCOc2c(Cl)cc(Nc3ccccc3C(=O)O)cc2Cl)c(Cl)c1 [B8, 2-[4-[3-[[4-(2-Carboxyethyl)-2,6-dichloro-phenoxy]-methoxy]-propoxy]-3,5-dichloro-anilino]-Benzoic Acid] | – | 2100 ± 210 | > 150 | reduced binding | Antifibrillogenic activity was reduced | 12 ± 3.7 | 12±3.7 | – | higher values of IC50
9 | O=C(O)CCc1cc(Cl)c(OCC/C=C/CCOc2c(Cl)cc(Nc3ccccc3C(=O)O)cc2Cl)c(Cl)c1 [B14, 2-[4-[(E)-6-[4-(2-Carboxyethyl)-2,6-dichloro-phenoxy]-hex-3-enoxy]-3,5-dichloro-anilino]-Benzoic Acid] | – | 80 ± 8 | 11 ± 2.9 | – | Antifibrillogenic activity was reduced | 13 ± 3.2 | 13±3.2 | – | –
10 | O=C(O)CCc1cc(Cl)c(OCC[C@@H](O)[C@H](O)CCOc2ccc(Nc3ccccc3C(=O)O)cc2Cl)c(Cl)c1 [B20, 2-[4-[(3R,4R)-6-[4-(2-Carboxyethyl)-2,6-dichloro-phenoxy]-3,4-dihydroxy-hexoxy]-3-chloro-anilino]-Benzoic Acid] | – | – | – | reduction in the observed potency | reduced potency | 11 ± 4.1 | 11±4.1 | – | –
11 | O=C(O)CCc1ccc(OCCC(O)C(O)CCOc2c(Cl)cc(Nc3ccccc3C(=O)O)cc2Cl)c(Cl)c1 (stereo not drawn) [B21, 2-[4-[6-[4-(2-Carboxyethyl)-2-chloro-phenoxy]-3,4-dihydroxy-hexoxy]-3,5-dichloro-anilino]-Benzoic Acid] | – | 70 ± 4 | 4.1 ± 2.1 | reduction in the observed potency | reduced potency | 15 ± 2.8 | 15±2.8 | – | –
12 | O=C(O)CCc1ccc(OCC[C@@H](O)[C@H](O)CCOc2ccc(Nc3ccccc3C(=O)O)cc2Cl)c(Cl)c1 [B22, 2-[4-[(3R,4R)-6-[4-(2-Carboxyethyl)-2-chloro-phenoxy]-3,4-dihydroxy-hexoxy]-3-chloro-anilino]Benzoic Acid] | – | – | – | reduction in the observed potency | reduced potency | 15 ± 2.8 | 15±2.8 | – | –
13 | O=C(O)CCc1cc(Cl)c(OCCCOCCOc2c(Cl)cc(Nc3cnncc3C(=O)O)cc2Cl)c(Cl)c1 [B24, 5-[4-[2-[3-[4-(2-Carboxyethyl)-2,6-dichloro-phenoxy]-propoxy]-ethoxy]-3,5-dichloro-anilino]-Pyridazine-4-Carboxylic acid] | – | 100 ± 5 | 7.9 ± 1.4 | slight reduction of binding potency | – | 13 ± 8.2 | 13±8.2 | – | –
14 | O=C(O)CCc1cc(Cl)c(OCCCOCCOc2c(Cl)cc(Nc3ccnnc3C(=O)O)cc2Cl)c(Cl)c1 [B25, 4-[4-[2-[3-[4-(2-Carboxyethyl)-2,6-dichloro-phenoxy]-propoxy]-ethoxy]-3,5-dichloro-anilino]-Pyridazine-3-Carboxylic acid] | – | – | 3.3 ± 1.8 | preservation of the properties | – | 11 ± 4.8 | 11±4.8 | – | –
15 | O=C(O)CCc1cc(Cl)c(OCCCOCCOc2c(Cl)cc(Nc3ccncc3C(=O)O)cc2Cl)c(Cl)c1 [B27, 4-[4-[2-[3-[4-(2-Carboxyethyl)-2,6-dichloro-phenoxy]-propoxy]-ethoxy]-3,5-Dichloro-anilino]-Pyridine-3-Carboxylic Acid] | – | – | – | preservation of the properties | – | 12 ± 1.1 | 12±1.1 | – | –
